From PMC9229919, “4-Aminoquinoline-Based Adamantanes as Potential Anticholinesterase Agents in Symptomatic Treatment of Alzheimer’s Disease” (Pharmaceutics, 2022)
Where two headings read alike, the source gives them in different places.

What was measured:
[1] = Reverse-phase thin-layer chromatographic lipophilicity (RF, RM0); assay type: physicochemical; details: for RM0: intercept of RM = RM0 + bC; for b: slope of RM = RM0 + bC; for RF, Methanol/Water/Hydrochloric acid (conc.), mobile phase I / RF, Dioxane/Water/Hydrochloric acid (conc.), mobile phase II / RF, Methanol/Water/Hydrochloric acid (conc.), mobile phase II / RF, Acetone/Water/Hydrochloric acid (conc.), mobile phase III / RF, Dioxane/Water/Hydrochloric acid (conc.), mobile phase III / RF, Methanol/Water/Hydrochloric acid (conc.), mobile phase III / RF, Dioxane/Water/Hydrochloric acid (conc.), mobile phase IV / RF, Acetone/Water/Hydrochloric acid (conc.), mobile phase IV / RF, Methanol/Water/Hydrochloric acid (conc.), mobile phase IV / RF, Acetone/Water/Hydrochloric acid (conc.), mobile phase IX / RF, Methanol/Water/Hydrochloric acid (conc.), mobile phase IX / RF, Dioxane/Water/Hydrochloric acid (conc.), mobile phase V / RF, Acetone/Water/Hydrochloric acid (conc.), mobile phase V / RF, Methanol/Water/Hydrochloric acid (conc.), mobile phase V / RF, Dioxane/Water/Hydrochloric acid (conc.), mobile phase VI / RF, Acetone/Water/Hydrochloric acid (conc.), mobile phase VI / RF, Methanol/Water/Hydrochloric acid (conc.), mobile phase VI / RF, Acetone/Water/Hydrochloric acid (conc.), mobile phase VII / RF, Methanol/Water/Hydrochloric acid (conc.), mobile phase VII / RF, Acetone/Water/Hydrochloric acid (conc.), mobile phase VIII / RF, Methanol/Water/Hydrochloric acid (conc.), mobile phase VIII: RP-18 silica; for RF, Methanol/Water/Hydrochloric acid (conc.), mobile phase I: I = 90%MeOH/5%H2O/5%HCl; for RF, Dioxane/Water/Hydrochloric acid (conc.), mobile phase II: II = 80%Dioxane/15%H2O/5%HCl; for RF, Methanol/Water/Hydrochloric acid (conc.), mobile phase II: II = 85%MeOH/10%H2O/5%HCl; for RF, Acetone/Water/Hydrochloric acid (conc.), mobile phase III: III = 70%AC/25%H2O/5%HCl; for RF, Dioxane/Water/Hydrochloric acid (conc.), mobile phase III: III = 70%Dioxane/25%H2O/5%HCl; for RF, Methanol/Water/Hydrochloric acid (conc.), mobile phase III: III = 80%MeOH/15%H2O/5%HCl; for RF, Dioxane/Water/Hydrochloric acid (conc.), mobile phase IV: IV = 60%Dioxane/35%H2O/5%HCl; for RF, Acetone/Water/Hydrochloric acid (conc.), mobile phase IV: IV = 65%AC/30%H2O/5%HCl; for RF, Methanol/Water/Hydrochloric acid (conc.), mobile phase IV: IV = 75%MeOH/20%H2O/5%HCl; for RF, Acetone/Water/Hydrochloric acid (conc.), mobile phase IX: IX = 40%AC/55%H2O/5%HCl; for RF, Methanol/Water/Hydrochloric acid (conc.), mobile phase IX: IX = 50%MeOH/45%H2O/5%HCl; for RF, Dioxane/Water/Hydrochloric acid (conc.), mobile phase V: V = 50%Dioxane/45%H2O/5%HCl; for RF, Acetone/Water/Hydrochloric acid (conc.), mobile phase V: V = 60%AC/35%H2O/5%HCl; for RF, Methanol/Water/Hydrochloric acid (conc.), mobile phase V: V = 70%MeOH/25%H2O/5%HCl; for RF, Dioxane/Water/Hydrochloric acid (conc.), mobile phase VI: VI = 40%Dioxane/55%H2O/5%HCl; for RF, Acetone/Water/Hydrochloric acid (conc.), mobile phase VI: VI = 55%AC/40%H2O/5%HCl; for RF, Methanol/Water/Hydrochloric acid (conc.), mobile phase VI: VI = 65%MeOH/30%H2O/5%HCl; for RF, Acetone/Water/Hydrochloric acid (conc.), mobile phase VII: VII = 50%AC/45%H2O/5%HCl; for RF, Methanol/Water/Hydrochloric acid (conc.), mobile phase VII: VII = 60%MeOH/35%H2O/5%HCl; for RF, Acetone/Water/Hydrochloric acid (conc.), mobile phase VIII: VIII = 45%AC/50%H2O/5%HCl; for RF, Methanol/Water/Hydrochloric acid (conc.), mobile phase VIII: VIII = 55%MeOH/40%H2O/5%HCl
Procedure, shortened: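 Reverse-phase TLC using mobile phases of methanol, acetone or dioxane with water and hydrochloric acid. Methanol varied in 10% steps; development distance 4.5 cm, ambient temperature (22±2 °C). RF measured and RM0 derived from retention.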

[2] = target: T1, purified human BChE (Homo sapiens, UniProt P06276); assay: biochemical; assay type: biochemical
T1 construct: possibly also a gift of Dr Florian Nachon (the sentence is ambiguous)
T1 sequence (P06276 29-602): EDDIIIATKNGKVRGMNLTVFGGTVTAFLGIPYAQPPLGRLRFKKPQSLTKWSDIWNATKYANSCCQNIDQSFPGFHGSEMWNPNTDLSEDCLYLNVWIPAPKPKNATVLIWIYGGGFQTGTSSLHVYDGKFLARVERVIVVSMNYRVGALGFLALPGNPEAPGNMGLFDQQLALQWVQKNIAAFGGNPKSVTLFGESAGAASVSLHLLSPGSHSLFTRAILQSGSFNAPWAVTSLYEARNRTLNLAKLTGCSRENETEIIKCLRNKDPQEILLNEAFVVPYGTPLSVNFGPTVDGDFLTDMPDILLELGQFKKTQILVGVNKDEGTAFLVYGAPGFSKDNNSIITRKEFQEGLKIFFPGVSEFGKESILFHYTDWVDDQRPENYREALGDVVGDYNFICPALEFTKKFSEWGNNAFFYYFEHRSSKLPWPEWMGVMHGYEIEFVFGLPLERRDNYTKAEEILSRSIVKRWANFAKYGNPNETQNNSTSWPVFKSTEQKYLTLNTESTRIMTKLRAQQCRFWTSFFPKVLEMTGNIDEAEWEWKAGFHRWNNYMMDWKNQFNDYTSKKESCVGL
Procedure, shortened: (§1)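 Modified Ellman assay with acetylthiocholine and DTNB in 0.1 M sodium phosphate pH 7.4 (enzymes diluted with 0.1% BSA), ≤0.2% DMSO, 25 °C. At least three inhibitor concentrations per substrate level; Ki,app from Hunter–Downs equation, Ki from y-intercept and inhibition type from Ki,app vs [S].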

[3] = target: T2, recombinant human AChE (Homo sapiens, UniProt P22303); assay: biochemical; assay type: biochemical; details: for IS: IS = Ki(BChE)/Ki(AChE), IS > 1 selective to AChE
T2 construct: gift of Dr Florian Nachon (Armed Forces Biomedical Research Institute, Brétigny-sur-Orge, France)
T2 sequence (P22303 32-614): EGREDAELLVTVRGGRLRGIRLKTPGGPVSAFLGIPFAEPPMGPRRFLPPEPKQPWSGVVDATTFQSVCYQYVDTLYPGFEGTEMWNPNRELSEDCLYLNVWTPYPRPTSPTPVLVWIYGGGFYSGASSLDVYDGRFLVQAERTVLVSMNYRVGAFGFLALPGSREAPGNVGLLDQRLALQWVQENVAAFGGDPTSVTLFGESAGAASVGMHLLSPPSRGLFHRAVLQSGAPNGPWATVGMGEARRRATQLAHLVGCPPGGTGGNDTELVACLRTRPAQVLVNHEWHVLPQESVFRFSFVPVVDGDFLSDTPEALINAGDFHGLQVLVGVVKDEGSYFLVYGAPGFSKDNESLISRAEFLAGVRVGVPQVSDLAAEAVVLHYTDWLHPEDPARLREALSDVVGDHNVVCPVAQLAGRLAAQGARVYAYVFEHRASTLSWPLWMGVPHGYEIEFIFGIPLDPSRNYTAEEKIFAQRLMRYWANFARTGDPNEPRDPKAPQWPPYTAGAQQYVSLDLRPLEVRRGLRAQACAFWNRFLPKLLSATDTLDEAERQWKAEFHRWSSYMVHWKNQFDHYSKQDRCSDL
Procedure, shortened: as §1

[4] = physchem; details: octadecyl-modified silica RP-18W F254s TLC plates, pH 0.5
Description: The mobile phase contained an organic modifier (methanol, acetone or dioxane), water, and hydrochloric acid. The content of hydrochloric acid was kept constant at 5% v/v, while the portions of organic modifier and water varied. […] Mobile phase MeOH/H2O/HCl, 70:25:5 (vol%) was used to determine the partition coefficients, logDexp, of the tested compounds at pH 0.5 (Supplementary Materials File S3 Table S7).
Chromatographic determination of lipophilicity
Lipophilicity of synthesized compounds was evaluated under reversed-phase thin-layer
chromatographic condition using the vertical developing chamber (CAMAG, Muttenz, Switzerland)
The mobile phase contained organic modifier (methanol, acetone or dioxane), water and hydrochloric acid. The content of hydrochloric acid was kept constant at 5 %v/v
while the portion of the organic modifier and water were changed. Methanol was varied in the range
with an increment of 10%. The chamber was saturated with a mobile phase being used 15 minutes
before chromatogram development. The solvent developing distance was 4.5 cm. Detection of
All experiments were performed at ambient temperature (22±2 °C). Retention parameters were calculated as previously described [7].
The logD values of the investigated substances were determined by the interpolation procedure. […]
LogD values of the investigated substances were determined from the equation of the calibration […]

[5] = Ferric reducing antioxidant power (FRAP) assay; details: for FRAP: mean ± standard error of three experiments;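 for FRAP: expressed as µM Fe2+ equivalents from an FeSO4·7H2O standard curve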
Procedure, shortened: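 Compounds at 10 and 100 µM were mixed with FRAP reagent (300 mM acetate buffer pH 3.6, TPTZ in HCl, FeCl3, 10:1:1) and incubated 60 min at 37 °C. Fe^2+-TPTZ formation read at 593 nm against a blank. Values derived from an Fe2SO4·7H2O standard curve, three independent experiments.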

[6] = target: T1, purified human BChE; parameters: method as in PMID 31600664; details: previously tested derivative 2 (CQAd); ref [38]; cited from earlier work
[7] = Acetone/Water/Hydrochloric acid (conc.)
[8] = Dioxane/Water/Hydrochloric acid (conc.)
[9] = Methanol/Water/Hydrochloric acid (conc.)
[10] = logarithm of Ki in µM, BChE, dependent variable of the QSAR model, read-out: Y Measured 2 log(ki)Bche, log (Ki/µM BChE) (converted)

SMILES	RM0 [1, 7]	b [1, 7]	RM0 [1, 8]	b [1, 8]	RM0 [1, 9]	b [1, 9]	RF, Methanol/Water/Hydrochloric acid (conc.), mobile phase I [1]	RF, Dioxane/Water/Hydrochloric acid (conc.), mobile phase II [1]	RF, Methanol/Water/Hydrochloric acid (conc.), mobile phase II [1]	RF, Acetone/Water/Hydrochloric acid (conc.), mobile phase III [1]	RF, Dioxane/Water/Hydrochloric acid (conc.), mobile phase III [1]	RF, Methanol/Water/Hydrochloric acid (conc.), mobile phase III [1]	RF, Dioxane/Water/Hydrochloric acid (conc.), mobile phase IV [1]	RF, Acetone/Water/Hydrochloric acid (conc.), mobile phase IV [1]	RF, Methanol/Water/Hydrochloric acid (conc.), mobile phase IV [1]	RF, Acetone/Water/Hydrochloric acid (conc.), mobile phase IX [1]	RF, Methanol/Water/Hydrochloric acid (conc.), mobile phase IX [1]	RF, Dioxane/Water/Hydrochloric acid (conc.), mobile phase V [1]	RF, Acetone/Water/Hydrochloric acid (conc.), mobile phase V [1]	RF, Methanol/Water/Hydrochloric acid (conc.), mobile phase V [1]	also measured
Clc1ccc2c(Nc3cccc4c(NCCC56CC7CC(CC(C7)C5)C6)cccc34)ccnc2c1 [Compound 19]	1.657	2.289	1.551	2.623	3.685	4.54	0.67	0.7	0.61	0.49	0.66	0.44	0.63	0.41	0.35	0.15	0	0.53	0.3	0.3	RF, Dioxane/Water/Hydrochloric acid (conc.), mobile phase VI [1]: 0.13; RF, Acetone/Water/Hydrochloric acid (conc.), mobile phase VI [1]: 0.28; RF, Methanol/Water/Hydrochloric acid (conc.), mobile phase VI [1]: 0.21; RF, Acetone/Water/Hydrochloric acid (conc.), mobile phase VII [1]: 0.25; RF, Methanol/Water/Hydrochloric acid (conc.), mobile phase VII [1]: 0.1; RF, Acetone/Water/Hydrochloric acid (conc.), mobile phase VIII [1]: 0.2; RF, Methanol/Water/Hydrochloric acid (conc.), mobile phase VIII [1]: 0.04; decrease in BChE inhibition vs compound 5 [2]: up to 275 times; Ki [2, 10]: 21.9 µM; Ki ([2]; ± standard error, 25 °C, ATCh substrate, read-out: Ki BChE): 22 ± 2 µM; IS [3]: 5.8; Ki ([3]; log (Ki/µM AChE), read-out: Y Measured 1 log(ki)Ache (converted)): 3.8 µM; Ki ([3]; ± standard error, 25 °C, ATCh substrate, read-out: Ki AChE): 3.8 ± 0.3 µM; chromatographic logD [4]: -4.12; FRAP ([5]; 10 µM compound): 336 ± 12 µM; FRAP ([5]; 100 µM compound): 2450 ± 210 µM; reducing power (in words) ([5]; 10 and 100 µM): very good reducing power comparable to that of BHT and Trolox
Clc1ccc2c(NCCCNCC34CC5CC(CC(C5)C3)C4)ccnc2c1 [Compound 2]	1.795	2.949	0.8129	1.796	2.34	3.123	0.73	0.78	0.67	0.61	0.73	0.52	0.73	0.58	0.53	0.15	0.11	0.55	0.5	0.47	Ki [6]: 3.2 ± 0.4 µM; RF, Dioxane/Water/Hydrochloric acid (conc.), mobile phase VI [1]: 0.4; RF, Acetone/Water/Hydrochloric acid (conc.), mobile phase VI [1]: 0.41; RF, Methanol/Water/Hydrochloric acid (conc.), mobile phase VI [1]: 0.43; RF, Acetone/Water/Hydrochloric acid (conc.), mobile phase VII [1]: 0.35; RF, Methanol/Water/Hydrochloric acid (conc.), mobile phase VII [1]: 0.25; RF, Acetone/Water/Hydrochloric acid (conc.), mobile phase VIII [1]: 0.3; RF, Methanol/Water/Hydrochloric acid (conc.), mobile phase VIII [1]: 0.19; less potent inhibitors of BChE than compounds 3 or 4 [2]: about 3.2 times; Ki [2, 10]: 3.2 µM; IS [3]: 4.2; Y Measured 1 log(ki)Ache ([3]; log (Ki/µM AChE)): -1.14E-01; FRAP ([5]; 10 µM compound): 19 ± 2 µM; FRAP ([5]; 100 µM compound): 64 ± 5 µM
